{"source": "paper PMC7555312", "about": "“Functional Characterization of Temporin-SHe, a New Broad-Spectrum Antibacterial and Leishmanicidal Temporin-SH Paralog from the Sahara Frog (Pelophylax saharicus)” (International Journal of Molecular Sciences, 2020)", "key": {"E. faecalis ATCC 29212": {"system": "E. faecalis ATCC 29212", "type": "cell-based, Enterococcus faecalis", "experimental": "(§3) Antimicrobial activity was assessed with a liquid growth inhibition assay performed according to a previously described protocol [14] using the Clinical and Laboratory Standards Institute (CLSI) guidelines. Briefly, in 96-well microtitration plates, mid-log-phase bacteria diluted to 10^6 CFU/mL in Mueller–Hinton (MH) broth were added to different concentrations of synthetic temporin-SHe (1–200 µM, final concentrations) and incubated at 37 °C for 18–20 h, under shaking (150 rpm). For E. faecalis, L. ivanovii and yeasts/fungi, 10^6 CFU/mL suspensions were prepared in LB broth, brain heart infusion (BHI) medium and Yeast Peptone Dextrose (YPD) medium, respectively, and incubation was performed at 30 °C for yeasts/fungi. […] MIC values represent the average of three independent experiments, each performed in triplicate with negative (no peptide) and positive (formaldehyde 0.7%) controls."}, "S. aureus ST1065 [1]": {"system": "S. aureus ST1065", "assay": "Time-killing assay", "type": "cell-based, Staphylococcus aureus", "settings": "two-fold MIC (6.25 µM temporin-SHe), 10^6 cfu/mL in PBS, plate counting", "description": "Aliquots were withdrawn at different times and spread onto LB agar plates for cell counting after overnight incubation at 37 °C. Controls corresponding to the bacterial suspensions without peptide were also run. Two independent experiments were performed in triplicate. Results were expressed as the mean ± S.D. of a representative experiment."}, "E. coli ML-35p": {"system": "E. coli ML-35p", "type": "cell-based, Escherichia coli", "settings": "liquid growth inhibition (CLSI), 10^6 CFU/mL in MH broth, 37 °C, 18–20 h, OD 630 nm; mean of three independent experiments in triplicate", "experimental": "as §3"}, "[2]": {"system": "all tested Gram-positive bacteria", "settings": "range over all tested Gram-positive bacteria", "description": "(§1) Antibacterial activity of temporin-SHe was evaluated against Gram-positive bacteria including S. aureus strains (ATCC 25923, ST1065), antibiotic-resistant S. aureus strains (ATCC 43300, ATCC BAA-44), E. faecalis (ATCC 29212), B. megaterium, and L. ivanovii (Li4pVS2), and Gram-negative bacteria including E. coli strains (ATCC 25922, ATCC 35218, ML-35p), S. enterica (serotype Enteritidis), P. aeruginosa (ATCC 27853), A. baumannii (ATCC 19606) and K. pneumoniae (ATCC 13883). Antifungal activity was evaluated against C. albicans (ATCC 90028), C. parapsilosis (ATCC 22019) and S. cerevisiae. ATCC strains were purchased from American-Type Culture Collection (ATCC, Virginia, VA, USA). Antiparasitic activity was determined against promastigotes of several species of Leishmania responsible for visceral, cutaneous and mucocutaneous leishmaniases: L. infantum (strain MHOM/MA/67/ITMAP-263), L. major (strain MHOM/SU/73/5-ASKH), and L. braziliensis (strain MHOM/BR/75/M2904), respectively. Cytotoxicity was assessed against human red blood cells and THP-1 monocytes. Peripheral blood was obtained from healthy adult donors (Établissement Français du Sang, Paris, France). All donors signed informed consent allowing the use of their blood for research purposes.\n(§2) Antimicrobial activity was assessed with a liquid growth inhibition assay performed according to a previously described protocol using the Clinical and Laboratory Standards Institute (CLSI) guidelines. Briefly, in 96-well microtitration plates, mid-log-phase bacteria diluted to 10^6 CFU/mL in Mueller–Hinton (MH) broth were added to different concentrations of synthetic temporin-SHe (1–200 µM, final concentrations) and incubated at 37 °C for 18–20 h, under shaking (150 rpm). For E. faecalis, L. ivanovii and yeasts/fungi, 10^6 CFU/mL suspensions were prepared in LB broth, brain heart infusion (BHI) medium and Yeast Peptone Dextrose (YPD) medium, respectively, and incubation was performed at 30 °C for yeasts/fungi. […] MIC values represent the average of three independent experiments, each performed in triplicate with negative (no peptide) and positive (formaldehyde 0.7%) controls."}, "S. aureus ATCC BAA-44": {"system": "S. aureus ATCC BAA-44", "description": "as §1, §2"}, "[3]": {"system": "S. enterica (serotype Enteritidis)", "description": "as §1, §2"}, "S. aureus ST1065 [4]": {"system": "S. aureus ST1065", "assay": "Membrane permeabilization assay (ONPG hydrolysis)", "type": "cell-based, Staphylococcus aureus", "settings": "increasing peptide concentrations, 2.5 mM ONPG in PBS, 37 °C", "description": "The ability of temporin-SHe to permeabilize bacterial cytoplasmic membrane was determined using the Gram-negative strain E. coli ML-35p and the Gram-positive strain S. aureus ST1065, as described. Briefly, after incubation of bacteria (37 °C) in 96-well plates with PBS containing 2.5 mM o-nitrophenyl-β-D-galactopyranoside (ONPG) and different concentrations of temporin-SHe, the production of o-nitrophenol (ONP) resulting from hydrolysis of ONPG by intracytoplasmic β-galactosidase was monitored at 405 nm according to the time (Fluostar Galaxy plate reader, BMG Labtech, Champigny-sur-Marne, France). Wells containing bacteria and ONPG, with no peptide, were used as negative control. Two independent experiments were performed in triplicate. Results are from a representative experiment and were expressed as the mean ± S.D."}, "S. aureus ATCC 25923": {"system": "S. aureus ATCC 25923", "assay": "Membrane depolarization assay, DiSC3(5)", "type": "cell-based, Staphylococcus aureus", "settings": "peptide at 2-fold MIC; 10^7 cfu/mL in PBS, 1 µM DiSC3(5), 37 °C, 20 min recording; representative of three assays", "description": "The depolarization of S. aureus ATCC 25923 cytoplasmic membrane induced by temporin-SHe and temporin-SHd was investigated using the membrane potential-sensitive cyanine dye DiSC3(5) (3,3′-dipropylthiadicarbocyanine iodide), as detailed in [29]. An amount of 700 µL of bacteria resuspended in PBS (10^7 cfu/mL) containing 1 μM DiSC3(5) were preincubated in the dark during 10 min at 37 °C, and then 100 µL of 1 mM KCl were added to the mixture. Fluorescence (λex = 622 nm; λem = 670 nm) was recorded during 20 min at 37 °C (Varian Cary Eclipse fluorescence spectrophotometer) after addition of the peptide (200 µL, final concentration: 2-fold above the MIC). Three independent experiments were performed and the results correspond to a representative experiment with negative (PBS) and positive (melittin) controls."}, "P. aeruginosa ATCC 27853": {"system": "P. aeruginosa ATCC 27853", "type": "cell-based, Pseudomonas aeruginosa", "experimental": "as §3"}, "[5]": {"system": "L. infantum promastigotes (strain MHOM/MA/67/ITMAP-263)", "type": "cell-based, Leishmania infantum", "settings": "72 h, 26 °C", "description": "Antileishmanial activity of temporin-SHe was analyzed by a luminescence-based growth inhibition method using Leishmania promastigotes transfected with the vector pGMαNEOαLUC containing the gene LUC that codes for the firefly luciferase, cultured at 26 °C in SDM-79 medium supplemented with 10% fetal calf serum (Gibco), as previously described. Mid-log-phase promastigotes (1.25 × 10^6 cells/mL) were added in 96-well plates containing different concentrations of synthetic temporin-SHe (3.125–50 µM, final concentrations), and incubated 72 h at 26 °C. […] IC50 was determined with GraphPad Prism® 6.0 software (GraphPad Software, La Jolla, CA, USA) using a sigmoidal dose–response curve fitting equation."}, "E. coli ATCC 25922": {"system": "E. coli ATCC 25922", "type": "cell-based, Escherichia coli", "experimental": "as §3"}, "S. cerevisiae": {"system": "S. cerevisiae", "type": "cell-based, Saccharomyces cerevisiae", "experimental": "as §3"}}, "note": "Where no end group is shown, it is not given here."}
{"substance": "FLPALAGIAGLLGKIF-NH2 [Temporin-SHe]", "values": [{"measurement": "MIC", "setting": "E. faecalis ATCC 29212", "value": 12.5, "unit": "µM"}, {"measurement": "time to complete killing", "setting": "S. aureus ST1065 [1]", "value": "≤ 5", "unit": "min"}, {"measurement": "MIC", "setting": "E. coli ML-35p", "value": 50, "unit": "µM"}, {"measurement": "MIC range", "setting": "[2]", "value": "1.56 to 12.5", "unit": "µM"}, {"measurement": "MIC", "setting": "S. aureus ATCC BAA-44", "value": 3.12, "unit": "µM"}, {"measurement": "MIC", "setting": "[3]", "value": 100, "unit": "µM"}, {"measurement": "cytoplasmic membrane permeabilization (ONP production, A405)", "setting": "S. aureus ST1065 [4]", "value": "time- and concentration-dependent manner"}, {"measurement": "membrane depolarization (DiSC3(5) fluorescence increase)", "setting": "S. aureus ATCC 25923", "value": "instantaneous"}, {"measurement": "MIC", "setting": "P. aeruginosa ATCC 27853", "value": 60, "unit": "µM"}, {"measurement": "IC50", "setting": "[5]; luciferase-expressing promastigotes 1.25 × 10^6 cells/mL, Steady-Glo, mean of three independent experiments in triplicate", "value": 4.6, "unit": "µM"}, {"measurement": "inhibition of L. infantum growth", "setting": "[5]; peptide 3.12 µM, promastigotes, mean of three independent assays in triplicates", "value": 42, "unit": "%"}, {"measurement": "MIC", "setting": "E. coli ATCC 25922", "value": 25, "unit": "µM"}, {"measurement": "MIC", "setting": "S. cerevisiae", "value": 12.5, "unit": "µM"}]}
